Measurements published in patent US9920039B2, “1,2,4-Oxadiazol compounds active against gram-positive pathogens” (UNIVERSITÀ DEGLI STUDI DI MILANO—BICOCCA, priority 2013, dated 2018).
Values after ≈ are worked out from the molar mass of the structure shown. Where two headings read alike, the source gives them in different places.

How the values were obtained:
[1] = test system: Staphylococcus aureus ATCC 29213; assay: MIC by broth microdilution (CLSI); type: cell-based; conditions: ATCC 29213
Excerpt: (§1) Several well characterized for their antibiotic-susceptibility phenotype Staphylococcus aureus isolates were used for the determination of the in vitro antibacterial activity of the studied compounds. In particular, S. aureus ATCC 29213 reference standard strain and S. aureus M923 (collection strain) were used as MSSA strains. Among MRSA, S. aureus MU50 (ATCC 700699) reference standard strain and two collection strains (433 and F511) were used for susceptibility assays.
(§2) The in vitro antibacterial activity of the new agents was studied by determining their minimum inhibitory concentrations (MICs) by means of the broth microdilution method according to the Clinical and Laboratory Standards Institute (CLSI) guidelines.[16] Briefly, serial 2-fold dilutions of each compound were made using the Cation adjusted Mueller-Hinton broth (CAMHB) in microtitre plates with 96 wells. Dimethyl sulfoxide (DMSO) was used as solvent for all the synthesized compounds. An equal volume of the bacterial inoculum (1×10^6 CFU/mL) was added to each well on the microtitre plate containing 0.05 mL of the serial antibiotic dilutions. The microtitre plate was then incubated at 37° C. for 18-24 h after which each well was analysed for the presence of bacterial growth. The MIC was defined as the lowest concentration of antimicrobial agent able to cause inhibition of bacterial growth as shown by the lack of turbidity of the culture medium. […] Final DMSO concentrations were also taken into account in all the biological assays.
(§3) The antimicrobial activities, summarized in Table 2, were determined by the “gold standard” method of broth microdilution, as recommended by the Clinical Laboratory Standards Institute (CLSI) (See the Experimental Section). […] In detail, the bacterial strains were tested: Staphylococcus aureus ATCC 29213, a clinical strain of methicillin-susceptible S. aureus (M923), S. aureus MU50 (methicillin-resistant—MRSA), and two methicillin-resistant clinical strains, 433 and F511.
(§4) The antimicrobial activities, summarized in Table 3, were determined by the “gold standard” method of broth microdilution, as recommended by the Clinical Laboratory Standards Institute (CLSI) (See the Experimental Section). The minimum inhibitory concentration (MIC) values were expressed in μg/mL. […] In detail, the tested bacterial strains were: Staphylococcus aureus ATCC 29213, a clinical strain of methicillin-susceptible S. aureus (M923), S. aureus MU50 (methicillin-resistant—MRSA) strain, and two methicillin-resistant clinical strains, 433 and F511.

[2] = test system: S. aureus MU50 (ATCC 700699), methicillin-resistant (MRSA); assay: MIC by broth microdilution (CLSI); type: cell-based, Staphylococcus aureus
Excerpt: as §1, §2, §3, §4

MRSA clinical strain 433 = assay: MIC by broth microdilution (CLSI); type: cell-based, Staphylococcus aureus; conditions: MRSA 433
Excerpt: as §1, §2, §3, §4

[3] = test system: MRSA clinical strain F511; assay: MIC by broth microdilution (CLSI); type: cell-based, Staphylococcus aureus
Excerpt: as §1, §2, §3, §4

[4] = test system: methicillin-susceptible S. aureus (M923); assay: MIC by broth microdilution (CLSI); type: cell-based, Staphylococcus aureus; conditions: MSSA M923
Excerpt: as §1, §2, §3, §4

[5] = test system: 12 MRSE all LZD sensitive; assay: MIC on strain panel (Table 4); type: cell-based, Staphylococcus epidermidis
Excerpt: as §2

[6] = test system: 6 ATCC (4MSSA, 2 MRSA)plus45 MRSA all LZD sensitive; assay: MIC on strain panel (Table 4); type: cell-based, Staphylococcus aureus; conditions: 6 ATCC plus 45 MRSA; for MIC-range: tested range ≤0.06 - >128
Excerpt: as §2

[7] = Staphylococcus aureus, ATCC29213, racemic mixture, Table 2, read-out: MIC
[8] = Staphylococcus aureus, racemic mixture, Table 2, read-out: MIC
[9] = Staphylococcus aureus, ATCC29213, racemic form, Table 3, read-out: MIC
[10] = Staphylococcus aureus, racemic form, Table 3, read-out: MIC

| MIC [1, 7] [µg/mL] | MIC [2, 8] [µg/mL] | MIC (MRSA clinical strain 433; [8]) [µg/mL] | MIC [3, 8] [µg/mL] | MIC [4, 8] [µg/mL] | melting point [°C] | SMILES | MIC [1, 9] [µg/mL] | MIC [2, 10] [µg/mL] | MIC (MRSA clinical strain 433; [10]) [µg/mL] | MIC [3, 10] [µg/mL] | MIC [4, 10] [µg/mL] | also measured |
| --- | --- | --- | --- | --- | --- | --- | --- | --- | --- | --- | --- | --- |
| > 50 | 50 (≈ 130 µM) | 25 (≈ 64.9 µM) | 50 (≈ 130 µM) | > 50 | 145 to 147 | Cc1noc(-c2ccc(N3CC(CI)OC3=O)cc2)n1 (racemic) [Compound A1a, 3-(4′-(3″-methyl-1,2,4-oxadiazol-5″-yl)-phenyl)-5-(iodomethyl)-oxazolidin-2-one] | – | – | – | – | – | – |
| 12.5 (≈ 37.4 µM) | 6.25 (≈ 18.7 µM) | 1.6 (≈ 4.79 µM) | 12.5 (≈ 37.4 µM) | 6.25 (≈ 18.7 µM) | 184 to 186 | CC(=O)NCC1CN(c2ccc(-c3nc(C)no3)c(F)c2)C(=O)O1 (racemic) [Compound A3b, 3-(3′-fluoro-4′-(3″-methyl-1,2,4-oxadiazol-5-yl)-phenyl)-5-(N-acetylaminomethyl)-oxazolidin-2-one] | – | – | – | – | – | – |
| > 50 | > 50 | > 50 | > 50 | > 50 | 133.9 to 135 | Cc1noc(-c2ccc(N3CC(CN=[N+]=[N-])OC3=O)cc2)n1 (racemic) [Compound A2a, 3-(4′-(3″-methyl-1,2,4-oxadiazol-5-yl)-phenyl)-5-(azidometil)-oxazolidin-2-one] | – | – | – | – | – | – |
| > 50 | > 50 | > 50 | > 50 | > 50 | 126.2 to 127.7 | Cc1noc(-c2ccc(N3CC(CN=[N+]=[N-])OC3=O)cc2F)n1 (racemic) [Compound A2b, 3-(3′-fluoro-4′-(3″-methyl-1,2,4-oxadiazol-5-yl)-phenyl)-5-(azidometil)-oxazolidin-2-one] | – | – | – | – | – | – |
| 3.13 (≈ 9.42 µM) | ≤ 0.4 | 1.6 (≈ 4.81 µM) | 1.6 (≈ 4.81 µM) | 1.6 (≈ 4.81 µM) | – | CC(=S)NCC1CN(c2ccc(-c3nc(C)no3)cc2)C(=O)O1 (racemic) [Compound A4a, 3-(4′-(3″-methyl-1,2,4-oxadiazol-5-yl)-phenyl)-5-(N-thioacetylaminomethyl)-oxazolidin-2-one] | – | – | – | – | – | – |
| 12.5 (≈ 39.5 µM) | 6.25 (≈ 19.8 µM) | 1.6 (≈ 5.06 µM) | 12.5 (≈ 39.5 µM) | 6.25 (≈ 19.8 µM) | 214 to 216 | CC(=O)NCC1CN(c2ccc(-c3nc(C)no3)cc2)C(=O)O1 (stereo not drawn) [Compound A3a, 3-(4′-(3″-methyl-1,2,4-oxadiazol-5-yl)-phenyl)-5-(N-acetylaminomethyl)-oxazolidin-2-one] | – | – | – | – | – | – |

Continued, compound first:

| SMILES | MIC [1, 7] [µg/mL] | MIC [2, 8] [µg/mL] | MIC (MRSA clinical strain 433; [8]) [µg/mL] | MIC [3, 8] [µg/mL] | MIC [4, 8] [µg/mL] | melting point [°C] | MIC [1, 9] [µg/mL] | MIC [2, 10] [µg/mL] | MIC (MRSA clinical strain 433; [10]) [µg/mL] | MIC [3, 10] [µg/mL] | MIC [4, 10] [µg/mL] | also measured |
| --- | --- | --- | --- | --- | --- | --- | --- | --- | --- | --- | --- | --- |
| Cc1noc(-c2ccc(N3CC(CNC(N)=S)OC3=O)cc2)n1 (racemic) [Compound B3a] | – | – | – | – | – | – | – | – | – | – | – | MIC ([1]; racemic form, Table 3): >50 µg/mL; MIC ([2]; racemic form, Table 3): >50 µg/mL; MIC (MRSA clinical strain 433; racemic form, Table 3): >50 µg/mL; MIC ([3]; racemic form, Table 3): >50 µg/mL; MIC ([4]; racemic form, Table 3): >50 µg/mL |
| CNC(=S)NC[C@H]1CN(c2ccc(-c3nc(C)no3)c(F)c2)C(=O)O1 [Compound B4bS] | – | – | – | – | – | – | – | – | – | – | – | MIC50 [5]: 8 µg/mL (≈ 21.9 µM); MIC90 [5]: 8 µg/mL (≈ 21.9 µM); MIC50 [6]: 2 µg/mL; MIC90 [6]: 4 µg/mL; MIC-range [6]: 0.5 to 8 µg/mL |
| Cc1noc(-c2ccc(N3CC(CN=C=S)OC3=O)cc2F)n1 (racemic) [Compound B2b] | – | – | – | – | – | – | > 50 | > 50 | > 50 | > 50 | > 50 | – |
| CNC(=S)NCC1CN(c2ccc(-c3nc(C)no3)c(F)c2)C(=O)O1 (racemic) [Compound B4b, 1-((3-(3-fluoro-4-(3-methyl-1,2,4-oxadiazol-5-yl)phenyl)-oxazolidin-2-one-5-yl)methyl)-3-methylthiourea] | – | – | – | – | – | 170.7 to 172.4 | 6.25 (≈ 17.1 µM) | 1.6 (≈ 4.38 µM) | 3.12 (≈ 8.55 µM) | 6.25 (≈ 17.1 µM) | 6.25 (≈ 17.1 µM) | MIC50 ([5]; Staphylococcus epidermidis, read-out: MIC50): 64 µg/mL (≈ 175 µM); MIC90 ([5]; Staphylococcus epidermidis, read-out: MIC90): 128 µg/mL (≈ 350 µM); MIC-range [6]: 0.5 to 16 µg/mL; MIC50 ([6]; Staphylococcus aureus, read-out: MIC50): 4 µg/mL; MIC90 ([6]; Staphylococcus aureus, read-out: MIC90): 16 µg/mL |
| Cc1noc(-c2ccc(N3CC(CN=C=S)OC3=O)cc2)n1 (racemic) [Compound B2a] | – | – | – | – | – | – | > 50 | > 50 | > 50 | 50 (≈ 158 µM) | > 50 | – |
| Cc1noc(-c2ccc(N3CC(Cn4ccnn4)OC3=O)cc2F)n1 (racemic) [Compound B1b] | – | – | – | – | – | 176.2 to 177.8 | 25 (≈ 72.6 µM) | 1.6 (≈ 4.65 µM) | 6.25 (≈ 18.2 µM) | 12.5 (≈ 36.3 µM) | 25 (≈ 72.6 µM) | – |
